According to the supplement of paper PMC13380429:

Tests used:
Details in all cases: 72 h
Caco-2 [1] = experiment: relative viability EC50 (midpoint between 100% and the lowest measured viability); higher = less toxic
HepG2 [2] = experiment: as above
Vero E6 [3] = experiment: as above
U2OS [4] = experiment: as above
Calu-3 [5] = experiment: as above
Caco-2 [6] = experiment: drug sensitivity score (DSS) for viability; higher = more toxic; extreme values may be limits of the assay
HepG2 [7] = experiment: as above
Vero E6 [8] = experiment: as above
U2OS [9] = experiment: as above
Calu-3 [10] = experiment: as above
Caco-2 [11] = experiment: cell viability relative to DMSO; higher = less toxic
HepG2 [12] = experiment: as above
Vero E6 [13] = experiment: as above
U2OS [14] = experiment: as above
Calu-3 [15] = experiment: as above

CO[C@H]1/C=C\C=C(/C)C(=O)NC2=CC(=O)C(NCCN(C)C)=C(C[C@@H](C)C[C@H](OC)[C@H](O)[C@@H](C)/C=C(\C)[C@@H]1OC(N)=O)C2=O [alvespimycin]
Details | drug sensitivity score | relative viability EC50 [nM]
Caco-2 [1] | – | 544
Caco-2 [6] | 13.9 | –
Calu-3 [5] | – | 148
Calu-3 [10] | 16.4 | –
HepG2 [2] | – | 11.4
HepG2 [7] | 36 | –
U2OS [4] | – | 54.2
U2OS [9] | 26.6 | –
Vero E6 [3] | – | 587
Vero E6 [8] | 12.8 | –

cell viability [%]
Details | Caco-2 [11] | Calu-3 [15] | HepG2 [12] | U2OS [14] | Vero E6 [13]
1 nM | 98.4 | 97.3 | 106 | 97.7 | 93.4
10 nM | 90.3 | 88.4 | 57.9 | 91.3 | 98.4
100 nM | 82.9 | 67.1 | 1.3 | 30.8 | 94.9
1000 nM | 39.7 | 36 | 1.4 | 2.5 | 37
10000 nM | 1.6 | 20 | -0.1 | 1 | 10.1
